In patent US5059624A, “Guanidine derivatives having hypotensive activity, composition containing them and process for obtaining them” (Consiglio Nazionale Delle Ricerche, priority 1988, dated 1991):
Where two headings read alike, the source gives them in different places.

Assays:
[1] = Lethal dose 50 (LD50) through i.p. route in mice; conditions: mouse, in vivo, ip
Method: The lethal dose 50 (LD50) of guanido-I through i.p. route in mice turned out to be 57 mg±3.6 per kg.
The lethal dose 50 (LD50) of the diguanido-II through i.p. route in mice, turned out to be 7 mg±0.6 per kg.

cardiovascular responses = experiment: Interaction and pretreatment experiments with diguanido-II (cardiovascular and respiratory responses); format: in vivo

Method for male Wistar rats: In order to check its activity, diguanido-II was dissolved in a 0.9 % sodium chloride solution and administered through "rapid" i.v. route in male Wistar rats, under general anaesthesia obtained by means of 10% ethyl urethan (i ml/hg).
The active ingredients called guanido-III, -IV, -V, as well as agmatine and galegine, were also tested, after having been administered through "rapid" i.v. route in male Wistar rats (weighing average 280±5 g) under general anaesthesia obtained by means of 10% ethyl uretan (1 ml/hg, i.p.). The general experimental conditions were exactly the same as previously mentioned for guanido-I and diguanido-II, so that the cardiovascular and respiratory effects could be compared.
The parameters measured are as follows: systolic and diastolic systemic arterial pressure (AP), heart rate (HR), maximum rate of increase in the left ventricular isovolumetric pressure (dp/dt), respiratory frequency (RF) and tidal volume (TV). The doses (in μg/kg body weight, referred to the active substance) varied from 50 μg/kg to 6,400 μg/kg (ratio=2.0); in some cases higher does have been employed.

COc1ccc([C@@H]2[C@@H](C(=O)NCCCCNC(=N)NCC=C(C)C)[C@@H](C(=O)NCCCCNC(=N)NCC=C(C)C)[C@@H]2c2ccc(OC)c(OC)c2)cc1OC [diguanido-II]
LD50 [1]: 7 mg/kg
cardiovascular responses after previous treatment with Hexameton (cardiovascular responses; previous treatment with Hexameton (ganglioplegic)): caused an increase in the cardiovascular responses
cardiovascular responses to acetylcholine and isoproterenol after previous treatment (cardiovascular responses; previous treatment with diguanido-II, agonists i.v., linear with agonist dose): increased the cardiovascular responses to administration, through i.v. route, of acetylcholine and isoproterenol
cardiovascular responses to nor-adrenaline and adrenaline after previous treatment (cardiovascular responses; previous treatment with diguanido-II, hypertensive doses of agonists): decreased the cardiovascular responses induced by hypertensive doses of nor-adrenaline and of adrenaline
Δ AF (male Wistar rats; 50 μg/kg i.v.): +18.8 ± 3.40 ml/min
Δ AF % (male Wistar rats; 50 μg/kg i.v.): +43 ± 3%
Δ AP % DIAST (male Wistar rats; 50 μg/kg i.v.): +11.0 ± 1.7%
Δ AP % SYST (male Wistar rats; 50 μg/kg i.v.): +15.0 ± 2.7%
Δ AP DIAST (male Wistar rats; 50 μg/kg i.v.): +9.8 ± 1.7 mmHg
Δ AP SYST (male Wistar rats; 50 μg/kg i.v.): +17.2 ± 2.4 mmHg
Δ HR (male Wistar rats; 50 μg/kg i.v.): -9 ± 3 beats/min
Δ HR % (male Wistar rats; 50 μg/kg i.v.): -3 ± 1%
Δ SV (male Wistar rats; 50 μg/kg i.v.): +72.6 ± 5 μl
Δ SV % (male Wistar rats; 50 μg/kg i.v.): +61 ± 5%
Δ TV (male Wistar rats; 50 μg/kg i.v.): +13 ± 3%
Δ dp/dt (male Wistar rats; 50 μg/kg i.v.): +1070 ± 90 mmHg/sec
Δ dp/dt % (male Wistar rats; 50 μg/kg i.v.): +17 ± 4%
Δ AF (male Wistar rats; 100 μg/kg i.v.): +10.8 ± 1.20 ml/min
Δ AF % (male Wistar rats; 100 μg/kg i.v.): +25 ± 1%
Δ AP % DIAST (male Wistar rats; 100 μg/kg i.v.): +11.0 ± 1.1%
Δ AP % SYST (male Wistar rats; 100 μg/kg i.v.): +10.0 ± 2.6%
Δ AP DIAST (male Wistar rats; 100 μg/kg i.v.): +10.2 ± 1.1 mmHg
Δ AP SYST (male Wistar rats; 100 μg/kg i.v.): +11.7 ± 2.5 mmHg
Δ HR (male Wistar rats; 100 μg/kg i.v.): -10 ± 1 beats/min
Δ HR % (male Wistar rats; 100 μg/kg i.v.): -3 ± 1%
Δ SV (male Wistar rats; 100 μg/kg i.v.): +19.8 ± 6 μl
Δ SV % (male Wistar rats; 100 μg/kg i.v.): +17 ± 6%
Δ TV (male Wistar rats; 100 μg/kg i.v.): +4 ± 1%
Δ dp/dt (male Wistar rats; 100 μg/kg i.v.): +1129 ± 82 mmHg/sec
Δ dp/dt % (male Wistar rats; 100 μg/kg i.v.): +18 ± 1%
Δ AF (male Wistar rats; 200 μg/kg i.v.): -13.8 ± 4.20 mL/min
Δ AF % (male Wistar rats; 200 μg/kg i.v.): -32 ± 4%
Δ AP % DIAST (male Wistar rats; 200 μg/kg i.v.): -9.0 ± 1.8%
Δ AP % SYST (male Wistar rats; 200 μg/kg i.v.): -13.0 ± 1.4%
Δ AP DIAST (male Wistar rats; 200 μg/kg i.v.): -13.1 ± 1.8 mmHg
Δ AP SYST (male Wistar rats; 200 μg/kg i.v.): -14.4 ± 1.4 mmHg
Δ HR (male Wistar rats; 200 μg/kg i.v.): -13 ± 4 beats/min
Δ HR % (male Wistar rats; 200 μg/kg i.v.): -4 ± 0.3%
Δ SV (male Wistar rats; 200 μg/kg i.v.): +23.1 ± 6 μl
Δ SV % (male Wistar rats; 200 μg/kg i.v.): +19 ± 6%
Δ TV (male Wistar rats; 200 μg/kg i.v.): +3 ± 2%
Δ dp/dt (male Wistar rats; 200 μg/kg i.v.): +1369 ± 170 mmHg/sec
Δ dp/dt % (male Wistar rats; 200 μg/kg i.v.): +21 ± 4%
Δ AF (male Wistar rats; 400 μg/kg i.v.): -14.3 ± 5.7 mL/min
Δ AF % (male Wistar rats; 400 μg/kg i.v.): -33 ± 6%
Δ AP % DIAST (male Wistar rats; 400 μg/kg i.v.): -18.0 ± 1.4%
Δ AP % SYST (male Wistar rats; 400 μg/kg i.v.): -18.0 ± 1.9%
Δ AP DIAST (male Wistar rats; 400 μg/kg i.v.): -17.0 ± 1.4 mmHg
Δ AP SYST (male Wistar rats; 400 μg/kg i.v.): -19.8 ± 1.9 mmHg
Δ HR (male Wistar rats; 400 μg/kg i.v.): -16 ± 5 beats/min
Δ HR % (male Wistar rats; 400 μg/kg i.v.): -5 ± 2%
Δ SV (male Wistar rats; 400 μg/kg i.v.): -46.2 ± 4 µL
Δ SV % (male Wistar rats; 400 μg/kg i.v.): -39 ± 4%
Δ TV (male Wistar rats; 400 μg/kg i.v.): -51 ± 7%
Δ dp/dt (male Wistar rats; 400 μg/kg i.v.): +2615 ± 181 mmHg/sec
Δ dp/dt % (male Wistar rats; 400 μg/kg i.v.): +41 ± 5%
Δ AF (male Wistar rats; 800 μg/kg i.v.): -25.0 ± 6.1 mL/min
Δ AF % (male Wistar rats; 800 μg/kg i.v.): -57 ± 6%
Δ AP % DIAST (male Wistar rats; 800 μg/kg i.v.): -34.0 ± 3.1%
Δ AP % SYST (male Wistar rats; 800 μg/kg i.v.): -27.0 ± 3.6%
Δ AP DIAST (male Wistar rats; 800 μg/kg i.v.): -31.2 ± 3.1 mmHg
Δ AP SYST (male Wistar rats; 800 μg/kg i.v.): -30.0 ± 3.6 mmHg
Δ HR (male Wistar rats; 800 μg/kg i.v.): -16 ± 5.5 beats/min
Δ HR % (male Wistar rats; 800 μg/kg i.v.): -5 ± 2%
Δ SV (male Wistar rats; 800 μg/kg i.v.): -85.8 ± 9 µL
Δ SV % (male Wistar rats; 800 μg/kg i.v.): -72 ± 9%
Δ TV (male Wistar rats; 800 μg/kg i.v.): -93 ± 8%
Δ dp/dt (male Wistar rats; 800 μg/kg i.v.): +3282 ± 269 mmHg/sec
Δ dp/dt % (male Wistar rats; 800 μg/kg i.v.): +51 ± 7%
Δ AF (male Wistar rats; 1600 μg/kg i.v.): -36.1 ± 4.8 mL/min
Δ AF % (male Wistar rats; 1600 μg/kg i.v.): -83 ± 5%
Δ AP % DIAST (male Wistar rats; 1600 μg/kg i.v.): -47.0 ± 6.8%
Δ AP % SYST (male Wistar rats; 1600 μg/kg i.v.): -36.0 ± 5.3%
Δ AP DIAST (male Wistar rats; 1600 μg/kg i.v.): -43.4 ± 6.8 mmHg
Δ AP SYST (male Wistar rats; 1600 μg/kg i.v.): -41.1 ± 5.3 mmHg
Δ HR (male Wistar rats; 1600 μg/kg i.v.): -30 ± 6 beats/min
Δ HR % (male Wistar rats; 1600 μg/kg i.v.): -9 ± 3%
Δ SV (male Wistar rats; 1600 μg/kg i.v.): -97.4 ± 8 µL
Δ SV % (male Wistar rats; 1600 μg/kg i.v.): -82 ± 8%
Δ TV (male Wistar rats; 1600 μg/kg i.v.): -98 ± 5%
Δ dp/dt (male Wistar rats; 1600 μg/kg i.v.): +3676 ± 264 mmHg/sec
Δ dp/dt % (male Wistar rats; 1600 μg/kg i.v.): +57 ± 6%
Δ AF (male Wistar rats; 3200 μg/kg i.v.): -41.0 ± 6.9 mL/min
Δ AF % (male Wistar rats; 3200 μg/kg i.v.): -94 ± 7%
Δ AP % DIAST (male Wistar rats; 3200 μg/kg i.v.): -58.0 ± 4.2%
Δ AP % SYST (male Wistar rats; 3200 μg/kg i.v.): -42.0 ± 6.5%
Δ AP DIAST (male Wistar rats; 3200 μg/kg i.v.): -53.0 ± 4.2 mmHg
Δ AP SYST (male Wistar rats; 3200 μg/kg i.v.): -47.8 ± 6.5 mmHg
Δ HR (male Wistar rats; 3200 μg/kg i.v.): -41 ± 8 beats/min
Δ HR % (male Wistar rats; 3200 μg/kg i.v.): -12 ± 3%
Δ SV (male Wistar rats; 3200 μg/kg i.v.): -117.2 ± 8 µL
Δ SV % (male Wistar rats; 3200 μg/kg i.v.): -98 ± 8%
Δ TV (male Wistar rats; 3200 μg/kg i.v.): -100%
Δ dp/dt (male Wistar rats; 3200 μg/kg i.v.): +4708 ± 430 mmHg/sec
Δ dp/dt % (male Wistar rats; 3200 μg/kg i.v.): +73 ± 9%
reflected tachycardia (in words) (male Wistar rats; all dose levels, i.v., rat): does not cause any reflected tachycardia
bradycardia / reduction of heart rate (in words) (male Wistar rats; all doses, i.v., rat): reduction of heart rate (HR), at all doses
action on the heart inotropism (in words) (male Wistar rats; i.v., rat): a constant stimulating action on the heart inotropism
hypotensive effect with respect to guanido-I (in words) (male Wistar rats; i.v., rat, vs guanido-I): higher pharmacological power as to hypotensive effect
effects on AP, AF, RF and TV (in words) (male Wistar rats; i.v., increase at 50-100 or 50-200 μg/kg, decrease up to 3,200 μg/kg): biphasic effects on AP, AF, RF and TV
